Data on four molecules can be found in patent US5616123A, “Delivery of solid drug compositions” (Delab, priority 1995, dated 1997).

Data set [1] can be described thus: plasma levels of BN 50730 after subcutaneous injection (FIGS. 13, 14). It is filed as in vivo, rabbits. The protocol:
These cylinders were injected subcutaneously into rabbits at a dosage of 2.0 mg/kg for a comparison study with BN 50730 mixed with propylene glycol. […] This 10 ng/ml is a sufficient concentration for a pharmacological effect.

For data set [2] the following is noted: cited from earlier work; for solubility: in words.

With `COc1ccc(NC(=S)N2CCc3c(sc4c3C(c3ccccc3Cl)=NCc3nnc(C)n3-4)C2)cc1` [BN 50730, 4,7,8,10-tetrahydro-1-methyl-6-(2-chlorphenyl)-9-(4-methoxyphenyl-thiocarbamoyl)-pyrrido-[4',3'-4,5]thieno[3,2-f]-1,2,4-triazolo[4,3-a]1,4-diazepine], in data set [1] (plasma concentration), the “sufficient concentration for a pharmacological effect” value was found to be 10 ng/ml. In data set [1] (solid formulation, subcutaneous, rabbits, 2.0 mg/kg), the “effect in plasma (onset)” value is on record as “immediate effect in plasma”. Moreover, the solubility result in data set [2] was “insoluble”.

Turning to `CCCCNc1ccc(C(=O)OCCN(C)C)cc1` [tetracaine], in data set [2], the solubility entry is “soluble”. In the case of Recombinant human insulin [RHI], in data set [2], the water solubility result is “water soluble”.

For the molecule bovine pancreas insulin [BPI], the water solubility entry in data set [2] is listed as “water insoluble”.
